Test: xn = mol fraction of the nth substance listed
Settings: 100 kPa

CCCCCC[n+]1ccccc1.N#C[N-]C#N + O
Settings	electrical conductivity, x1 = 0.9076 [S/m]	electrical conductivity, x1 = 0.9239 [S/m]	electrical conductivity, x1 = 0.9408 [S/m]	electrical conductivity, x1 = 0.9582 [S/m]	electrical conductivity, x1 = 0.9762 [S/m]	viscosity, x1 = 0.9152 [mPa·s]	viscosity, x1 = 0.9306 [mPa·s]	viscosity, x1 = 0.9488 [mPa·s]	viscosity, x1 = 0.9665 [mPa·s]	viscosity, x2 = 0.0151 [mPa·s]
298.15 K	0.554	0.532	0.512	–	–	49.3	–	51.8	53.7	–
303.15 K	0.682	0.66	0.642	0.615	0.588	39.19	40.28	41.67	–	45.48
308.15 K	0.817	–	0.769	0.739	0.711	32.18	33.01	34.12	35.44	37.16
313.15 K	0.997	0.958	0.927	0.889	0.839	26.76	27.39	28.15	29.09	30.51
318.15 K	1.17	1.12	–	1.05	1	–	23.12	23.8	–	25.35
323.15 K	1.34	1.29	1.26	1.22	1.17	18.75	19.06	19.48	20.12	21.03
328.15 K	1.52	–	1.42	1.39	–	–	16.38	–	17.36	18.12
333.15 K	1.73	1.68	1.64	1.59	1.55	13.84	14.07	14.44	14.95	15.67
338.15 K	–	1.9	–	1.8	1.75	–	12.38	12.75	13.17	–

CCCC[n+]1ccccc1.N#C[N-]C#N + O
Settings	electrical conductivity, x1 = 0.9189 [S/m]	electrical conductivity, x1 = 0.9335 [S/m]	electrical conductivity, x1 = 0.9486 [S/m]	electrical conductivity, x1 = 0.9642 [S/m]	electrical conductivity, x2 = 0.0198 [S/m]	viscosity, x1 = 0.9257 [mPa·s]	viscosity, x1 = 0.9415 [mPa·s]	viscosity, x1 = 0.9569 [mPa·s]	viscosity, x1 = 0.9726 [mPa·s]	viscosity, x2 = 0.0111 [mPa·s]
298.15 K	1.03	0.997	0.968	–	0.903	28.23	29.04	–	31.13	32.25
303.15 K	–	–	–	1.08	1.06	23.59	24.03	–	25.61	26.58
308.15 K	1.41	1.38	1.34	1.29	1.26	19.79	20.18	20.75	21.47	22.17
313.15 K	1.65	1.6	1.57	–	1.5	–	17.11	–	18.19	18.73
318.15 K	1.93	–	1.85	1.81	1.76	–	14.67	15	–	16.14
323.15 K	2.32	2.26	2.18	2.11	2.05	12.11	12.4	–	13.13	–
328.15 K	2.51	2.47	2.42	2.36	2.3	–	–	11.08	11.44	11.84
333.15 K	2.85	2.81	–	–	2.65	9.38	9.57	–	10.1	10.43
338.15 K	3.22	3.16	3.1	3.05	2.99	8.34	–	8.65	8.93	9.19

CC[n+]1ccccc1.N#C[N-]C#N + O
Settings	electrical conductivity, x1 = 0.9285 [S/m]	electrical conductivity, x1 = 0.9414 [S/m]	electrical conductivity, x1 = 0.9545 [S/m]	electrical conductivity, x1 = 0.9681 [S/m]	electrical conductivity, x2 = 0.0181 [S/m]	viscosity, x1 = 0.9353 [mPa·s]	viscosity, x1 = 0.9484 [mPa·s]	viscosity, x1 = 0.9617 [mPa·s]	viscosity, x1 = 0.9754 [mPa·s]	viscosity, x2 = 0.0105 [mPa·s]
298.15 K	2.27	–	2.06	–	1.86	14.98	15.27	15.62	16.02	–
303.15 K	2.46	2.37	–	2.18	2.08	12.98	13.23	13.58	–	14.38
308.15 K	2.75	2.66	–	2.48	2.39	11.41	11.59	11.87	12.17	–
313.15 K	3.05	2.98	2.9	–	2.74	–	10.26	–	10.73	–
318.15 K	3.39	3.33	–	3.18	3.1	8.95	9.11	9.32	9.52	9.75
323.15 K	3.85	3.78	3.7	3.61	3.54	7.77	7.9	8.08	–	8.44
328.15 K	4.34	4.26	4.18	4.08	4.01	7.01	7.13	7.28	–	7.61
333.15 K	–	–	4.7	–	4.48	6.35	6.45	6.58	6.73	6.88
338.15 K	5.47	5.34	5.24	5.11	5.01	–	–	5.98	–	6.22
